Series [1] addresses T1, HCV-NS5b (Hepatitis C virus genotype 1b, UniProt Q9WMX2).
T1 construct: (His)6 (C); made in house; host or cells: XL-1 cells (E. coli), IPTG-inducible plasmid, nickel-NTA purification
The series is described as follows: HCV-NS5b enzyme assay (incorporation of radiolabeled UTP). It is filed as biochemical. To be noted: for inhibition at 100 µM: read-out: % inh@100, enzyme inhibition at compound concentration of 100 uM. In outline: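 Percent inhibition, background-corrected against uninhibited control, was measured at 100 and 33 uM compound. Incorporation of [3H]-UTP (10 μM each NTP) into biotinylated HCV-template RNA, 37° C for 2 h, pH 7.5, scintillation proximity. Enzyme: C-terminally truncated (21 aa), His6-tagged NS5b from XL-1.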

The conditions of series [2]: cited from earlier work.
Where [3] appears, read: enzyme inhibition at compound concentration of 33 uM.

For the compound `COc1ccc(-c2ccccc2F)c(-c2ccc3cc(-c4nc5cc(C(=O)O)ccc5n4C4CCCCC4)ccc3n2)c1` [Compound 544, 1-Cyclohexyl-2-[2-(2′-fluoro-4-methoxy-biphen-2-yl)-quinolin-6-yl]-1H-benzoimidazole-5-carboxylic acid], in series [1] (setting [3]), the inhibition at 33 µM was found to be 102%. The inhibition at 100 µM in series [1] was 100%.
On to `COc1ccc(C2CCCCC2)c(-c2ccc3cc(-c4nc5cc(C(=O)O)ccc5n4C4CCCCC4)ccc3n2)c1` [Compound 545, 1-Cyclohexyl-2-[2-(2-cyclohexyl-5-methoxy-phenyl)-quinolin-6-yl]-1H-benzoimidazole-5-carboxylic acid], for which the inhibition at 33 µM in series [1] (setting [3]) came out at 99.2%. In addition, the inhibition at 100 µM in series [1] is 101%.
Taken in the same sequence, the figures for `CN(C(=O)c1ccc2cc(-c3nc4cc(C(=O)O)ccc4n3C3CCCCC3)ccc2n1)c1ccc(Cl)cc1` [Compound 546] were 95.3% and 102%.
For `COc1ccc(-c2ccc(Cl)cc2)c(-c2ccc3cc(-c4nc5cc(C(=O)O)ccc5n4C4CCC(C)CC4)ccc3n2)c1` (stereo not drawn) [Compound 547, 2-[2-(4′-chloro-4-methoxy-biphen-2-yl)-quinolin-6-yl]-1-(4-methyl-cyclohexyl)-1H-benzoimidazole-5-carboxylic acid], the “% inh@33” value in series [1] (enzyme inhibition at compound concentration of 33 uM, 33 µM) was found to be 102.71%. For the same compound, the “% inh@100” value in series [1] (enzyme inhibition at compound concentration of 100 uM, 100 µM) was 101.82%.
`COc1ccc(-c2ccccc2C)c(-c2ccc3cc(-c4nc5cc(C(=O)O)ccc5n4C4CCCCC4)ccc3n2)c1` [Compound 548]: the inhibition at 33 µM in series [1] (setting [3]) was determined as 103%. Moreover, in series [1], the inhibition at 100 µM worked out at 101%.
For the compound `O=C(O)c1ccc2c(c1)nc(-c1ccc3nc(-c4cc(C(=O)N5CCCC5)ccc4-c4ccc(F)cc4)ccc3c1)n2C1CCCCC1` [Compound 549, 1-Cyclohexyl-2-{2-[4′-fluoro-4-(pyrrolidine-1-carbonyl)biphen-2-yl]quinolin-6-yl}-1H-benzimidazole-5-carboxylic acid], in series [1] (setting [3]), the inhibition at 33 µM was 100%. Moreover, the inhibition at 100 µM in series [1] was found to be 102%.
As for `CC(C)N(C(=O)c1ccc2cc(-c3nc4cc(C(=O)O)ccc4n3C3CCCCC3)ccc2n1)c1ccc(Cl)cc1` [Compound 550, 2-{2-[(4-Chlorophenyl)isopropylcarbamoyl]quinolin-6-yl}-1-cyclohexyl-1H-benzimidazole-5-carboxylic acid], the inhibition at 33 µM in series [1] (setting [3]) was determined as 99.1%. The inhibition at 100 µM in series [1] came out at 102%.
The corresponding values for `O=C(O)c1ccc2c(c1)nc(-c1ccc3nc(C(=O)N(c4ccc(Cl)cc4)C4CCCCC4)ccc3c1)n2C1CCCCC1` [Compound 551, 2-{2-[(4-Chlorophenyl)cyclohexylcarbamoyl]quinolin-6-yl}-1-cyclohexyl-1H-benzimidazole-5-carboxylic acid] are 87.5% and 95.7%.
`COc1ccc(-c2ccccc2OC)c(-c2ccc3cc(-c4nc5cc(C(=O)O)ccc5n4C4CCCCC4)ccc3n2)c1` [Compound 552, 1-Cyclohexyl-2-[2-(4,2′-dimethoxy-biphen-2-yl)-quinolin-6-yl]-1H-benzoimidazole-5-carboxylic acid]: the inhibition at 33 µM in series [1] (setting [3]) worked out at 101%. The inhibition at 100 µM in series [1] was found to be 101%.
For `COc1ccc(-c2ccc(Cl)cc2)c(-c2ccc3cc(-c4nc5cc(C(=O)O)ccc5n4C4CC(C)CC(C)(C)C4)ccc3n2)c1` (stereo not drawn) [Compound 555, 2-[2-(4′-chloro-4-methoxy-biphen-2-yl)-quinolin-6-yl]-1-(3,3,5-trimethyl-cyclohexyl)-1H-benzoimidazole-5-carboxylic acid], the inhibition at 33 µM in series [1] (setting [3]) came to 101%. For the same compound, in series [1], the inhibition at 100 µM came to 101%.
Regarding `COc1ccc(-c2ccc(Cl)cc2)c(-c2ccc3cc(-c4nc5cc(C(=O)O)ccc5n4C4CCCCC4C)ccc3n2)c1` (stereo not drawn) [Compound 556, 2-[2-(4′-Chloro-4-methoxy-biphen-2-yl)-quinolin-6-yl]-1-(2-methyl-cyclohexyl)-1H-benzoimidazole-5-carboxylic acid], in series [1] (setting [3]), the inhibition at 33 µM worked out at 103%. Further, in series [1], the inhibition at 100 µM is 102%.
The corresponding values for `CCc1ccc(-c2ccc(OC)cc2-c2ccc3cc(-c4nc5cc(C(=O)O)ccc5n4C4CCCCC4)ccc3n2)cc1` [Compound 557, 1-Cyclohexyl-2-[2-(4′-ethyl-4-methoxy-biphen-2-yl)-quinolin-6-yl]-1H-benzoimidazole-5-carboxylic acid] are 103% and 101%.
Regarding `COc1ccc(-c2ccc(Cl)cc2)c(-c2ccc3cc(-c4nc5cc(C(=O)O)ccc5n4C4CCNCC4)ccc3n2)c1` [Compound 558, 2-[2-(4′-Chloro-4-methoxy-biphen-2-yl)-quinolin-6-yl]-1-piperidin-4-yl-1H-benzoimidazole-5-carboxylic acid], the inhibition at 33 µM in series [1] (setting [3]) worked out at 32.5%. Further, the inhibition at 100 µM in series [1] turned out to be 77.3%.
The corresponding values for `COc1ccc(-c2ccc(Cl)cc2)c(-c2ccc3cc(-c4nc5cc(C(=O)O)ccc5n4Cc4ccccc4)ccc3n2)c1` [Compound 559, 1-Benzyl-2-[2-(4′-chloro-4-methoxy-biphen-2-yl)-quinolin-6-yl]-1H-benzoimidazole-5-carboxylic acid] are 101% and 101%.
Consider `COc1ccc(-c2ccc(F)c(F)c2)c(-c2ccc3cc(-c4nc5cc(C(=O)O)ccc5n4C4CCCCC4)ccc3n2)c1` [Compound 560, 1-Cyclohexyl-2-[2-(3′,4′-difluoro-4-methoxy-biphen-2-yl)-quinolin-6-yl]-1H-benzoimidazole-5-carboxylic acid], for which the inhibition at 33 µM in series [1] (setting [3]) is 101%. Further, in series [1], the inhibition at 100 µM stood at 101%.
As for `COc1ccc(-c2cc(Cl)cc(Cl)c2)c(-c2ccc3cc(-c4nc5cc(C(=O)O)ccc5n4C4CCCCC4)ccc3n2)c1` [Compound 562, 1-Cyclohexyl-2-[2-(3′,5′-dichloro-4-methoxy-biphen-2-yl)-quinolin-6-yl]-1H-benzoimidazole-5-carboxylic acid], the inhibition at 33 µM in series [1] (setting [3]) came to 102%. Further, the inhibition at 100 µM in series [1] turned out to be 101%.
Taken in the same sequence, the figures for `O=C(O)c1ccc2c(c1)nc(-c1ccc3nc(-c4cc(F)ccc4-c4ccc(Cl)cc4)ccc3c1)n2C1CCCCC1` [Compound 563, 2-[2-(4′-Chloro-4-fluoro-biphen-2-yl)-quinolin-6-yl]-1-cyclohexyl-1H-benzoimidazole-5-carboxylic acid] were 101% and 101%.
`CCC(CC)n1c(-c2ccc3nc(-c4cc(OC)ccc4-c4ccc(Cl)cc4)ccc3c2)nc2cc(C(=O)O)ccc21` [Compound 564, 2-[2-(4′-Chloro-4-methoxy-biphen-2-yl)-quinolin-6-yl]-1-(1-ethyl-propyl)-1H-benzoimidazole-5-carboxylic acid]: the inhibition at 33 µM in series [1] (setting [3]) was 102%. The inhibition at 100 µM in series [1] stood at 101%.
The corresponding values for `O=C(O)c1ccc2c(c1)nc(-c1ccc3nc(-c4cc5c(cc4-c4ccc(Cl)cc4)OCCCO5)ccc3c1)n2C1CCCCC1` [Compound 565, 2-{2-[8-(4-chloro-phenyl)-3,4-dihydro-2H-benzo[b][1,4]dioxepin-7-yl]-quinolin-6-yl}-1-cyclohexyl-1H-benzoimidazole-5-carboxylic acid] are 102% and 100%.
As for `COc1ccc(-c2ccc(Cl)cc2)c(-c2ccc3cc(-c4nc5cc(C(=O)O)ccc5n4CC4CCCO4)ccc3n2)c1` (stereo not drawn) [Compound 566, 2-[2-(4′-chloro-4-methoxy-biphen-2-yl)-quinolin-6-yl]-1-(tetrahydrofuran-2-yl-methyl)-1H-benzoimidazole-5-carboxylic acid], the inhibition at 33 µM in series [1] (setting [3]) was found to be 99.2%. Further, the inhibition at 100 µM in series [1] was 100%.
Regarding `O=C(O)c1ccc2c(c1)nc(-c1ccc3nc(-c4cc(Cl)ccc4-c4ccc(Cl)cc4)ccc3c1)n2C1CCCCC1` [Compound 567, 1-cyclohexyl-2-[2-(4,4′-dichloro-biphen-2-yl)-quinolin-6-yl]-1H-benzoimidazole-5-carboxylic acid], the inhibition at 33 µM in series [1] (setting [3]) came out at 101%. In addition, in series [1], the inhibition at 100 µM was 97.7%.
Take `COc1ccc(-c2ccc(Cl)cc2)c(-c2ccc3cc(-c4nc5cc(C(=O)O)ccc5n4C4CC5CCC4C5)ccc3n2)c1` (stereo not drawn) [Compound 568, 1-bicyclo[2.2.1]hept-2-yl-2-[2-(4′-chloro-4-methoxy-biphen-2-yl)-quinolin-6-yl]1H-benzoimidazole-5-carboxylic acid]: the inhibition at 33 µM in series [1] (setting [3]) was 101%. Moreover, the inhibition at 100 µM in series [1] is 100%.
The corresponding values for `Nc1ccc(-c2ccc(Cl)cc2)c(-c2ccc3cc(-c4nc5cc(C(=O)O)ccc5n4C4CCCCC4)ccc3n2)c1` [Compound 569, 2-[2-(4-amino-4′-chloro-biphen-2-yl)-quinolin-6-yl]-1-cyclohexyl-1H-benzoimidazole-5-carboxylic acid] are 101% and 101%.
For `NC(=O)c1ncn([C@@H]2O[C@H](CO)[C@@H](O)[C@H]2O)n1` [Ribavirin, ribavirin], the teratogenicity / embryotoxicity entry in series [2] (human, in vivo) is “teratogenic and embryotoxic”. For the same compound, in series [2] (patients treated at currently recommended doses), the “patients with significant hemolysis” value is 10-20%.

Source of the values: patent US7511145B2 (Genelabs Technologies, Inc., priority 2003, dated 2009).
